For series [1], the target named is T1, hNav1.4 (Homo sapiens, UniProt P35499). The settings on record: cited from earlier work.
The nature of series [2]: Apparent permeability across Caco-2 monolayer (BA and AB). The format is in vitro ADME. As to conditions: human, 120 min, HBSS pH 7.4; for Papp A→B at 120 min, 100 µM: Apical-to-Basolateral; for Papp B→A at 120 min, 100 µM: Basolateral-to-Apical. On the procedure: (§1) Permeability experiments. Details for permeability experiments. Preparation of Caco‐2 monolayer. This procedure has been previously reported by Colabufo et al.[65] Briefly, Caco‐2 cells were harvested with trypsin‐EDTA and seeded onto MultiScreen Caco‐2 assay system at a density of 10,000 cells per well. The culture medium was replaced every 48 h for the first 6 days and every 24 h thereafter. After 21 days in culture, the Caco‐2 monolayer was utilized for the permeability experiments. The Trans Epithelial Electrical Resistance (TEER) of the monolayers was measured daily before and after the experiment using an epithelial voltohmmeter (Millicell®‐ERS; Millipore, Billerica, MA). […] Drug transport experiment. […] Drugs were dissolved in Hanks’ balanced salt solution (HBSS, pH 7.4) and sterile filtered. After 21 days of cell growth, the medium was removed from filter wells and from the receiver plate. The wells were filled with 75 μL of fresh HBSS buffer and the receiver plate with 250 μL per well of the same buffer. This procedure was repeated twice, and the plates were incubated at 37 °C for 30 min. After incubation, the HBSS buffer was removed and drug solutions added to the filter well (75 μL). HBSS without the drug was added to the receiver plate (250 μL). The plates were incubated at 37 °C for 120 min. After incubation, samples were removed from the apical (filter well) and basolateral (receiver plate) sides of the monolayer and stored at −20 °C up to analysis. Compounds were lyophilized at −52 °C and 0.06 bars for 24 h and desalted by adding 500 μL of CH3CN (in order to remove phosphate salts coming from HBSS), then 500 μL of Ammonium Acetate (50 mM, pH 5) were added. The resulting solutions were analyzed by ESI‐MS in order to determine the concentration of drug in the samples. The concentration of tested compounds was measured using UV spectroscopy. The apparent permeability (P app), in units of nm per second, was calculated using the following equation: […]
(§2) where V A is the volume (in mL) in the acceptor well; Area is the surface area of the membrane (0.11 cm^2 of the well); time is the total transport time in seconds (7200 s); [drug]acceptor is the concentration of the drug measured by ESI‐MS analyses or UV spectroscopy; [drug]initial is the initial drug concentration (1 ⋅ 10^−4 M) in the apical or basolateral wells.

The target of series [3] is T1, hNav1.4. Put plainly: Patch-clamp block of hNav1.4 sodium currents in HEK293T cells. The series is classed as cell-based. The settings on record: for IC50: HEK293T cells, value ± standard error of the fit; for TB/PB (ratio IC50 tonic block/IC50 phasic block): use-dependence. The method, then:
Patch clamp experiments. Exploratory compounds were tested on sodium currents recorded in HEK293T cells (human embryonic kidney cell line) permanently expressing the wild‐type human Nav1.4 sodium channel, as previously described.[14, 61] Whole‐cell sodium currents were recorded at room temperature (∼22 °C) using Axon hardware and software (Axon Instruments Inc., Union City, CA, USA). Bath solution contained (mM): 150 NaCl, 4 KCl, 2 CaCl2, 1 MgCl2, 5 HEPES and 5 glucose (pH 7.4). Pipette solution contained (mM): 120 CsF, 10 CsCl, 10 NaCl, 5 EGTA, and 5 HEPES (pH 7.2). Pipette resistance was […]. Stabilization of the whole‐cell configuration was allowed for 5 minutes before to record sodium currents elicited from a holding potential of −120 mV using 25 ms‐long test pulses at −30 mV applied every 10 or 0.1 sec (0.1 and 10 Hz frequencies). The patched cell was continuously perfused by control or drug‐supplemented bath solution. To limit errors due to rundown and voltage‐dependence shifts, no more than two drug concentrations were tested on each cell. The I DRUG/I CTRL ratio (mean±S.E.M. from at least 3 cells) was plotted against drug concentration.
The half‐maximum inhibitory concentration (IC50) and slope factor (nH) are given with the standard error of the fit.
Background: In patch-clamp work, channel activity is measured electrically.

The test system of the next series is P-gp. Put plainly: Apparent permeability across Caco-2 monolayer (BA and AB). The format is in vitro ADME. As to conditions: human, pH 7.4; ratio of Papp BA to Papp AB. On the procedure:
as §1, §2
Background: Caco-2 monolayers are a common model of the intestinal barrier.

Series [4] concerns HeLa cells. Kind of series: Mitochondrial ROS production by DHR staining, flow cytometry. The format is cell-based, human. The settings on record: 50 μM, compared with 13 a. On the procedure: (§3) Cell culture. Cervical cancer cell lines (HeLa) were cultured in Dulbecco's modified eagle medium (DMEM) supplemented with 10 % fetal bovine serum (FBS), 1 % glutamine, and 1 % penicillin/streptomycin (all purchased from Euroclone, Italy) in a humidified incubator at 37 °C and 5 % CO2 and 95 % relative humidity.
(§4) Flow cytometry analysis. In order to detect ROS production after drugs treatment,[66, 67] cells at 3×10^5 cells were seeded in 6‐well plates in DMEM with 10 % FBS and cultured overnight. The following day, cells were washed twice with PBS and kept in DMEM without FBS for 2 h. […] Antibiotics were omitted during pharmacological compound assays. After incubation period, cells were washed twice with HBSS, and stained with 5 μM of 2′,7′‐dichorofluorescein (DCFA‐DA) and dihydrorhodamine (DHR) (Thermo Fischer Scientific, Italy) for 30 min in dark. After washing, cells were resuspended in HBSS and analyzed using an Attune Acoustic Focusing Cytometer (Thermo Fisher Scientific) equipped with a 488 nm laser. Thereafter, DCFA‐DA stained cells were co‐stained with 1 μg/mL of 7‐aminoactinomycin D (7‐AAD) (Thermo Fischer Scientific, Italy), incubated on ice for 45 min in dark in order to asses viable and non‐viable cells, and then flow cytometry analysis was carried out.
A general note: Flow cytometry measures light scatter and fluorescence of single cells or particles in a stream.

Series [5] concerns HeLa cells. Put plainly: ROS production by DCF staining, flow cytometry. The format is cell-based, human. The method, then:
as §3, §4

Series [6] has as its system HeLa cells. Kind of series: Cell viability by 7-AAD co-staining, flow cytometry. The series is classed as cell-based, human. The settings on record: 1 and 50 μM, 24 h. On the procedure: as §3, §4
The mark [7] stands for this setting: 0.1 Hz stimulation, read-out: Tonic Block IC50 at 0.1 Hz.
Setting [8] is: 10 Hz stimulation, read-out: Phasic Block IC50 at 10 Hz.

Where a name gives a salt, the structure may show the parent alone. Read-outs that look alike come from different tables or passages of the source.

We go through nine compounds from paper PMC9293070, “Bioisosteric Modification of To042: Synthesis and Evaluation of Promising Use‐Dependent Inhibitors of Voltage‐Gated Sodium Channels” (Chemmedchem, 2021).

T1 sequence (P35499 whole entry): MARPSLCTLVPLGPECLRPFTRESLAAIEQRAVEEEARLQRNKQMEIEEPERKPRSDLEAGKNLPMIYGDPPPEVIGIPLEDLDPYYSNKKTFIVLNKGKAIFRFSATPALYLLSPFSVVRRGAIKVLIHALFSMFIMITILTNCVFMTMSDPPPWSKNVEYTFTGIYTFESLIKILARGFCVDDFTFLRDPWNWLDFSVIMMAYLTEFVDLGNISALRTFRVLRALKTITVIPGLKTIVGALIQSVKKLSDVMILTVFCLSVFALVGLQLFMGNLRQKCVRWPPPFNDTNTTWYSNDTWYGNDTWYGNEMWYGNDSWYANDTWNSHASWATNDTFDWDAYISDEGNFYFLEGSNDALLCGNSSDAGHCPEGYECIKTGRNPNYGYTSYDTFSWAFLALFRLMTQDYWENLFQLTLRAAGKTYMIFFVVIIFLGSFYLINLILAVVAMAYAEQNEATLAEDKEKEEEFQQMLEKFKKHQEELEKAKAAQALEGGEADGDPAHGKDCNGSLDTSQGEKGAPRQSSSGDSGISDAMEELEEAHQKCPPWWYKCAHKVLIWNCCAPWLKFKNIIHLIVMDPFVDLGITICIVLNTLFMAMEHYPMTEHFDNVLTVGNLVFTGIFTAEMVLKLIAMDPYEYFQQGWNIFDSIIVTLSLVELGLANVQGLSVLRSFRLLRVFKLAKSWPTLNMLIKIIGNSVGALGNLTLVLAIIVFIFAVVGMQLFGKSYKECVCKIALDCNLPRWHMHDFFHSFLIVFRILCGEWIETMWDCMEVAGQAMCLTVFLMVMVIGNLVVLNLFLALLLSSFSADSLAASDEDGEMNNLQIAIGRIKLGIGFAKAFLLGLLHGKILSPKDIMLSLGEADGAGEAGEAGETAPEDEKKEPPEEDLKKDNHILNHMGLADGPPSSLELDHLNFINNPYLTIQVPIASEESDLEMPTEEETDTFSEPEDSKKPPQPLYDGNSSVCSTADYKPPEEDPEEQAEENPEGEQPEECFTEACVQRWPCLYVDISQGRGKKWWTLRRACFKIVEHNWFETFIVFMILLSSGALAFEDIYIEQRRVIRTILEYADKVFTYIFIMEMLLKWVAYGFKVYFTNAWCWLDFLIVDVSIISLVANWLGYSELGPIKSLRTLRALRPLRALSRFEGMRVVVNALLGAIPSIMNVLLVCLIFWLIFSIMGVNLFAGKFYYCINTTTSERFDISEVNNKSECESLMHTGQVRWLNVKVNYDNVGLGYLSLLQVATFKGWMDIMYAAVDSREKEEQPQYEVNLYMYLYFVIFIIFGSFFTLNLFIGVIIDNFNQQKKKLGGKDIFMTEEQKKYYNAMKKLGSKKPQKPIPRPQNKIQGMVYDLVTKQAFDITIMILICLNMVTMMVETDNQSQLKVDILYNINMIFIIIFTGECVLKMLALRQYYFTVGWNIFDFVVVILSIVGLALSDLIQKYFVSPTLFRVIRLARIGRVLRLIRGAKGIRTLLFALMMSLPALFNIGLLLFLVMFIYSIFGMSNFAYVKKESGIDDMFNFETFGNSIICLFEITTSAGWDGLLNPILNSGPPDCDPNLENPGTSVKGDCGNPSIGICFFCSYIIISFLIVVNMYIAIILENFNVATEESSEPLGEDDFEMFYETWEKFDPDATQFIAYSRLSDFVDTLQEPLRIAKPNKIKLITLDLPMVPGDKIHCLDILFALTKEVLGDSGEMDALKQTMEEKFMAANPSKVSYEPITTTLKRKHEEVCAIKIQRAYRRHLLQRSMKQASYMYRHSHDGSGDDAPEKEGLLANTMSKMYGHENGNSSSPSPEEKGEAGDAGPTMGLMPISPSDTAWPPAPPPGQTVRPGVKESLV

In general, melting point refers to the temperature, or range, at which the solid turns liquid. In the case of `Cc1cccc(C)c1NC(=O)CC(C)NCc1ccc2ccccc2c1` (stereo not drawn) (as salt: hydrochloride) [13 b, N‐(2,6‐Dimethylphenyl)‐3‐[(naphthalen‐2‐ylmethyl)amino]butanamide], the melting point is 199 to 201 °C.
Still for that read-out and setting: to `Cc1cccc(C)c1OCCC(C)NCc1cccc2ccccc12` (stereo not drawn) (as salt: hydrochloride) [17 a, N‐[(Naphthalen‐1‐yl)methyl]‐4‐[(2,6‐dimethyl)phenoxy]butan‐2‐amine] belongs 183 to 184 °C.
Turning to `Cc1cccc(C)c1OCCC(C)NCc1ccc2ccccc2c1` (stereo not drawn) (as salt: hydrochloride) [17 b, N‐[(Naphthalen‐2‐yl)methyl]‐4‐[(2,6‐dimethyl)phenoxy]butan‐2‐amine], the melting point lay in the range of 178 to 179 °C.
The Papp A→B is the apparent permeability from the apical to the basolateral side of a cell layer. The term Papp B→A denotes how fast a substance crosses the layer from the basolateral side. For `Cc1cccc(C)c1NC(=O)CC(C)NCc1cccc2ccccc12` (stereo not drawn) [13 a, N‐(2,6‐Dimethylphenyl)‐3‐[(naphthalen‐1‐ylmethyl)amino]butanamide], the “nH (slope factor), tonic block” value at hNav1.4 [1] (0.1 Hz stimulation) is 1.3±0.1. Also, at hNav1.4 [1] (10 Hz stimulation), the “nH (slope factor), phasic block” value was 0.8±0.1. In addition, in series [2], the Papp A→B at 120 min, 100 µM came to 56.6 ×10⁻⁶ cm/s and the Papp B→A at 120 min, 100 µM came out at 223 ×10⁻⁶ cm/s.
As a reminder, the IC50 is the point on the concentration scale where inhibition reaches its midpoint. As a reminder, the efflux ratio is the permeability from basolateral to apical divided by that in the opposite direction, in the common usage. As to `Cc1cccc(C)c1NC(=O)CC(C)NCc1ccc2ccccc2c1` (stereo not drawn) [13 b, N‐(2,6‐Dimethylphenyl)‐3‐[(naphthalen‐2‐ylmethyl)amino]butanamide], at hNav1.4 [3] (0.1 Hz stimulation), the “nH (slope factor), tonic block” value is 1.1±0.1. Also, at hNav1.4 [3] (setting [7]), the IC50 was 147 ± 12 µM. Moreover, the “nH (slope factor), phasic block” value at hNav1.4 [3] (10 Hz stimulation) was determined as 0.8±0.1. The IC50 at hNav1.4 [3] (setting [8]) is 14 ± 1.8 µM. Also, at hNav1.4 [3], the “TB/PB (ratio IC50 tonic block/IC50 phasic block)” value was 10.5. Further, in series [2], the Papp A→B at 120 min, 100 µM worked out at 43.8 ×10⁻⁶ cm/s and the Papp B→A at 120 min, 100 µM was 216 ×10⁻⁶ cm/s. The efflux ratio at 120 min, 100 µM with P-gp was determined as 4.9.
On to `Cc1cccc(C)c1OCCC(C)NCc1cccc2ccccc12` (stereo not drawn) [17 a, N‐[(Naphthalen‐1‐yl)methyl]‐4‐[(2,6‐dimethyl)phenoxy]butan‐2‐amine], for which, at hNav1.4 [3] (0.1 Hz stimulation), the “nH (slope factor), tonic block” value amounted to 1.2±0.2. Besides, the IC50 on hNav1.4 [3] (setting [7]) is 1080 ± 150 µM; at hNav1.4 [3] (setting [8]), 57 ± 8 µM. On hNav1.4 [3] (10 Hz stimulation), the “nH (slope factor), phasic block” value amounted to 0.8±0.1. Further, on hNav1.4 [3] (10 Hz, relative to To042), the “fold higher IC50 value at 10 Hz than To042” value is reported as 6 fold. The “TB/PB (ratio IC50 tonic block/IC50 phasic block)” value on hNav1.4 [3] turned out to be 18.9. In the series with HeLa cells [4], the “mitochondrial ROS levels (DHR)” value was “lower ROS levels”. The “percentage of mitochondrial ROS producing cells (DHR)” value with HeLa cells [4] is recorded as “lower percentage of ROS producing cells”. The “percentage of ROS producing cells related to untreated cells (% DCF (+) cells)” value in the series on HeLa cells [5] (1 μM, 6 h exposure) is reported as “no significant effects”; in the series with HeLa cells [5] (50 μM, 6 h exposure) it was “significant cytoprotective effect”; in the series on HeLa cells [5] (24 h exposure, regardless of concentrations (1 and 50 μM)), “prominent cytoprotective effect”. In the series on HeLa cells [5] (50 μM, 24 h exposure), the “ROS production related to untreated cells (DCF fluorescence median)” value was about 3 fold. Moreover, in series [2], the Papp A→B at 120 min, 100 µM was found to be 25.9 ×10⁻⁶ cm/s. Moreover, the Papp B→A at 120 min, 100 µM in series [2] was determined as 180 ×10⁻⁶ cm/s. Also, the efflux ratio at 120 min, 100 µM in the series with P-gp was determined as 7.1. Moreover, the “cellular viability (7-AAD positive cells untreated related)” value with HeLa cells [6] is given as “not affected”.
Consider `Cc1cccc(C)c1OCCC(C)NCc1ccc2ccccc2c1` (stereo not drawn) [17 b, N‐[(Naphthalen‐2‐yl)methyl]‐4‐[(2,6‐dimethyl)phenoxy]butan‐2‐amine], for which the “nH (slope factor), tonic block” value at hNav1.4 [3] (0.1 Hz stimulation) is recorded as 0.9±0.1. Also, the IC50 on hNav1.4 [3] (setting [7]) came out at 88 ± 11 µM. In addition, the “nH (slope factor), phasic block” value at hNav1.4 [3] (10 Hz stimulation) was 1.1±0.1. The IC50 on hNav1.4 [3] (setting [8]) was determined as 8.8 ± 0.6 µM. In addition, on hNav1.4 [3], the “TB/PB (ratio IC50 tonic block/IC50 phasic block)” value is given as 10. In series [2], the Papp A→B at 120 min, 100 µM was determined as 49.6 ×10⁻⁶ cm/s and the Papp B→A at 120 min, 100 µM was 199 ×10⁻⁶ cm/s. Also, the efflux ratio at 120 min, 100 µM with P-gp stood at 4.
Consider `Cc1cccc(C)c1OCC(C)N` (stereo not drawn) [mexiletine], for which the “nH (slope factor), tonic block” value at hNav1.4 [1] (0.1 Hz stimulation) was 1.2±0.1. Besides, the IC50 is 256 ± 25 µM on hNav1.4 [1] (setting [7]) and 46 ± 5 µM on hNav1.4 [1] (setting [8]). Moreover, the “nH (slope factor), phasic block” value on hNav1.4 [1] (10 Hz stimulation) was 0.9±0.1.
As to `Cc1cccc(C)c1NC(=O)C(C)N` (stereo not drawn) [tocainide], the “nH (slope factor), tonic block” value at hNav1.4 [1] (0.1 Hz stimulation) is given as 1.0±0.1. Further, the concentration for half-maximal inhibition (IC50) on hNav1.4 [1] (setting [7]) is 700 ± 70 µM. For the same compound, the “nH (slope factor), phasic block” value on hNav1.4 [1] (10 Hz stimulation) is on record as 1.1±0.2. Moreover, the IC50 on hNav1.4 [1] (setting [8]) is 182 ± 24 µM. Moreover, at hNav1.4 [1] (use-dependence), the “TB/PB (ratio IC50 tonic block/IC50 phasic block)” value is recorded as 3.8. Moreover, in series [2], the apparent permeability from apical to basolateral (Papp A→B) at 120 min, 100 µM came to 49.6 ×10⁻⁶ cm/s and the Papp B→A at 120 min, 100 µM came to 196 ×10⁻⁶ cm/s. In addition, in the series on P-gp, the efflux ratio at 120 min, 100 µM is 3.9.
